From patent US9724351B2, “Compounds for the treatment of paramoxyvirus viral infections” (priority 2012, dated 2017)
pEC50: −log10 of the molar value.

Tests used:
[1] = tested on: Respiratory Syncytial Virus (RSV) long strain (ATCC#VR-26); experiment: RSV Antiviral Assay (CPE reduction assay); type: cell-based; conditions: human respiratory syncytial virus, 120 h; HEp-2 cells infected with RSV long strain, 5 days, CCK-8 readout; bins (Table 2: less than 1 μM; Table 3: equal to or higher than 1 μM and less than 50 μM); read-out: 50% effective concentration (EC50)
Method in brief: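 HEp-2 cells infected with 100 TCID50 RSV long strain per well, compounds from 100 μM or 1 μM in 9-point ⅓ dilutions, duplicates, 1% DMSO. After 5 days at 37 °C, viable cells measured by CCK-8 (A450, 630 nm background); EC50 by regression on mean O.D.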

[2] = Cytotoxicity Determination; type: cell-based; conditions: human, HEp-2 cells, without addition of virus, CCK-8 readout, bins (Table 4: greater than 100 μM; Table 5: equal to or less than 100 μM and greater than 10 μM), read-out: 50% cytotoxicity concentration (CC50)
Method in brief: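 Uninfected cells were exposed to compounds in duplicate over a 7-point ½ dilution series starting at 100 μM final, for 5 days at 37 °C, 5% CO2. CCK-8 was then added for 3-4 h, and CC50 was calculated from optical density.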

Structure (SMILES)	pEC50 [1]	CC50 at 5 days [2]
COc1ccc(C(=O)NCC(=O)c2ccc(OC)c(-c3csc(C(=O)O)c3)n2)cc1OC [Compound 1537]	4.30 to 6.00	> 100 µM
CCCC/C(=N\NC(=O)CNC(=O)c1ccc(OCC)c(OC)c1)c1csc2ccccc12 [Compound 488]	> 6.00	> 100 µM
COc1ccc(C(=O)NCC(=O)c2ccc(OC)c(-c3cccc4c(F)cccc34)n2)cc1OC [Compound 1522]	4.30 to 6.00	10 to 100 µM
COc1cc(C(=O)NCC(=O)c2cccc(-c3csc4c(F)cccc34)n2)ccc1OCC(N)=O [Compound 1247]	> 6.00	10 to 100 µM
COc1cc(C(=O)NCC(=O)c2ccc(OC)c(-c3ccc(F)c(Cl)c3)n2)ccc1OCC(C)N (stereo not shown) [Compound 1315]	4.30 to 6.00	10 to 100 µM
COc1cc(C(=O)NCC(=O)c2ccc(OC)c(-c3ccc(F)c(Cl)c3)n2)ccc1OCC1CC1 [Compound 2638]	> 6.00	10 to 100 µM
COc1cc(C(=O)NCC(=O)c2ccc(OC)c(-c3ccc(F)cc3F)n2)ccc1OCCO [Compound 1601]	> 6.00	> 100 µM
CCOc1ccc(C(=O)NCC(=O)N/N=C(\C)c2csc3c(F)cccc23)cc1OC [Compound 461]	> 6.00	10 to 100 µM
COc1ccc(C(=O)NCC(=O)c2ccc(OC)c(-c3csc4c(F)cccc34)n2)cc1OC [Compound 1336]	> 6.00	> 100 µM
COc1ccc(C(=O)NCC(=O)c2ccc(OC)c(-c3ccc(C(=O)N4CCCCC4)cc3)n2)cc1OC [Compound 1518]	4.30 to 6.00	10 to 100 µM
COc1ccc(C(=O)CNC(=O)c2ccnc(C)c2)nc1-c1ccc(F)c(Cl)c1 [Compound 4204]	4.30 to 6.00	> 100 µM
C=C(C)/C(=N\NC(=O)CNC(=O)c1ccc(OC)c(OC)c1)c1csc2ccccc12 [Compound 434]	4.30 to 6.00	> 100 µM
COc1ccc(C(=O)NCC(=O)c2ccc(OC)c(-c3ccc(N4CCOCC4)cc3)n2)cc1OC [Compound 1506]	4.30 to 6.00	10 to 100 µM
CCOc1ccc(C(=O)NCC(=O)N/N=C(\CCc2ccccc2)c2csc3ccccc23)cc1OC [Compound 459]	> 6.00	> 100 µM
COc1cc(C(=O)NCC(=O)c2cccc(-c3csc4c(F)cccc34)n2)ccc1OCC(=O)O [Compound 1248]	4.30 to 6.00	10 to 100 µM
COc1cc(C(=O)NCC(=O)c2ccc(OC)c(-c3c(Cl)sc4c(F)cccc34)n2)ccc1OCCO [Compound 2621]	> 6.00	> 100 µM
CCOc1ccc(C(=O)NCC(=O)N/N=C(\C)c2csc3cnccc23)cc1OC [Compound 466]	4.30 to 6.00	> 100 µM
COc1ccc(C(=O)NCC(=O)N/N=C/c2c(C)sc3ccccc23)cc1OC [Compound 400]	4.30 to 6.00	10 to 100 µM
COc1ccc(C(=O)NCC(=O)c2cc(C=C(C)C)cc(-c3csc4c(F)cccc34)n2)cc1OC [Compound 1238]	4.30 to 6.00	> 100 µM
COc1ccc(C(=O)NC(C)C(=O)c2ccc(OC)c(-c3csc4c(F)cccc34)n2)cc1OC (stereo not shown) [Compound 1824]	> 6.00	> 100 µM
COc1ccc(C(=O)NCC(=O)NN=C(c2ccccc2)c2ccccc2)cc1OC [Compound 440]	4.30 to 6.00	> 100 µM
COc1ccc(C(=O)NCC(=O)c2ccc(OC)c(-c3cccnc3C)n2)cc1OC [Compound 1540]	4.30 to 6.00	> 100 µM
CCN(CC)c1ccc(C(=O)NCC(=O)N/N=C(\C)c2csc3ccccc23)cc1OC [Compound 500]	4.30 to 6.00	> 100 µM
COc1ccc(C(=O)NCC(=O)c2ccc(OC)c(-c3ccc4scnc4c3)n2)cc1OC [Compound 1539]	4.30 to 6.00	> 100 µM
COc1ccc(C(=O)NCC(=O)c2ccc3ccccc3n2)cc1OC [Compound 1701]	4.30 to 6.00	> 100 µM
COc1ccc(C(=O)N2CCCCC2C(=O)c2ccc(OC)c(-c3csc4c(F)cccc34)n2)cc1OC (stereo not shown) [Compound 1800]	4.30 to 6.00	10 to 100 µM
CCN(CC)c1cc(C(=O)NCC(=O)N/N=C(\C)c2csc3ccccc23)ccc1OC [Compound 504]	4.30 to 6.00	10 to 100 µM
CCCC/C(=N\NC(=O)CNC(=O)c1ccc(OC)c(OC)c1)c1csc2c(F)cccc12 [Compound 400-7]	> 6.00	10 to 100 µM
COc1ccc(C(=O)NCC(=O)N/N=C/c2cc3ccccc3o2)cc1OC [Compound 409]	4.30 to 6.00	10 to 100 µM
